According to ChEMBL document CHEMBL1201862, “PubChem BioAssay data set” (2004):
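Assay format: 96-well plates, 48-hour exposure. The concentration for 50% growth inhibition is given as GI50.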 Calls of active or inactive are those of the source. Cut-off read from the data, not from the text of the source: active = GI50 up to about 1.1 µM and inactive = higher.

Columns and labels:
Assay in all cases: NCI-60 cell line screen, 48 h
[1] = system: 786-0
[2] = system: A498
[3] = system: A549
[4] = system: ACHN
[5] = system: CAKI-1
[6] = system: CCRF-CEM
[7] = system: COLO 205
[8] = system: DU-145
[9] = system: EKVX
[10] = system: HCC 2998
[11] = system: HCT-116
[12] = system: HCT-15
[13] = system: HL-60
[14] = system: HOP-62
[15] = system: HOP-92
[16] = system: HT-29
[17] = system: Hs-578T
[18] = system: IGROV-1
[19] = system: K562
[20] = system: KM12
[21] = system: LOX IMVI
[22] = system: M14
[23] = system: MCF7
[24] = system: MDA-MB-231
[25] = system: MDA-MB-435
[26] = system: MDA-N
[27] = system: MOLT-4
[28] = system: Malme-3M
[29] = system: NCI-H226
[30] = system: NCI-H23
[31] = system: NCI-H460
[32] = system: NCI-H522
[33] = system: NCI/ADR-RES
[34] = system: OVCAR-3
[35] = system: OVCAR-4
[36] = system: OVCAR-5
[37] = system: OVCAR-8
[38] = system: PC-3
[39] = system: RXF 393
[40] = system: SF-268
[41] = system: SF-295
[42] = system: SF-539
[43] = system: SK-MEL-28
[44] = system: SK-MEL-2
[45] = system: SK-MEL-5
[46] = system: SK-OV-3
[47] = system: SN12C
[48] = system: SNB-19
[49] = system: SNB-75
[50] = system: SR
[51] = system: SW-620
[52] = system: T47D
[53] = system: TK-10
[54] = system: U-251
[55] = system: UACC-257
[56] = system: UACC-62
[57] = system: UO-31
[58] = system: RPMI-8226

Compound: COC(=O)CCC(=O)c1ccc2c(c1)CC1(C2)Cc2ccc3c(c2C1)CCCC3=O (configuration not stated)
- GI50 [1]: 29.9 µM (inactive)
- GI50 [2]: 20.7 µM (inactive)
- GI50 [3]: > 57 µM (inactive)
- GI50 [4]: 21.1 µM (inactive)
- GI50 [5]: 16.4 µM (inactive)
- GI50 [6]: 1.78 µM (inactive)
- GI50 [7]: 21.5 µM (inactive)
- GI50 [8]: 33.7 µM (inactive)
- GI50 [9]: 56.8 µM (inactive)
- GI50 [10]: 38.3 µM (inactive)
- GI50 [11]: > 34 µM (inactive)
- GI50 [12]: 8.15 µM
- GI50 [13]: 3.94 µM (inactive)
- GI50 [14]: > 53.5 µM (inactive)
- GI50 [15]: 15.5 µM (inactive)
- GI50 [16]: 11.2 µM (inactive)
- GI50 [17]: 56.1 µM (inactive)
- GI50 [18]: 21.9 µM (inactive)
- GI50 [19]: 2.88 µM (inactive)
- GI50 [20]: 14.7 µM (inactive)
- GI50 [21]: 20 µM (inactive)
- GI50 [22]: 9.1 µM (inactive)
- GI50 [23]: 12.2 µM (inactive)
- GI50 [24]: > 73.5 µM (inactive)
- GI50 [25]: 3.73 µM (inactive)
- GI50 [26]: 4.85 µM (inactive)
- GI50 [27]: 0.489 µM (active)
- GI50 [28]: 18.4 µM (inactive)
- GI50 [29]: 27.8 µM (inactive)
- GI50 [30]: 31 µM (inactive)
- GI50 [31]: 25.2 µM (inactive)
- GI50 [32]: 21.4 µM (inactive)
- GI50 [33]: 29 µM (inactive)
- GI50 [34]: 10.1 µM (inactive)
- GI50 [35]: 24.1 µM (inactive)
- GI50 [36]: 40.1 µM (inactive)
- GI50 [37]: 26.7 µM (inactive)
- GI50 [38]: 24.3 µM (inactive)
- GI50 [39]: > 53 µM (inactive)
- GI50 [40]: 33.8 µM (inactive)
- GI50 [41]: 26 µM (inactive)
- GI50 [42]: 11.9 µM (inactive)
- GI50 [43]: 25.5 µM (inactive)
- GI50 [44]: 7.31 µM (inactive)
- GI50 [45]: 10.5 µM (inactive)
- GI50 [46]: 50.6 µM (inactive)
- GI50 [47]: 38.1 µM (inactive)
- GI50 [48]: 27.2 µM (inactive)
- GI50 [49]: 86.5 µM (inactive)
- GI50 [50]: 0.297 µM (active)
- GI50 [51]: 20.7 µM (inactive)
- GI50 [52]: 34.8 µM (inactive)
- GI50 [53]: 41 µM (inactive)
- GI50 [54]: 25 µM (inactive)
- GI50 [55]: 18.9 µM (inactive)
- GI50 [56]: > 26.1 µM (inactive)
- GI50 [57]: 18.2 µM (inactive)

Compound: CCC1=NC(C(F)(F)F)(C(F)(F)F)N=C(N2CCOCC2)O1
- GI50 [3]: > 100 µM (inactive)
- GI50 [4]: > 100 µM (inactive)
- GI50 [5]: 34.5 µM (inactive)
- GI50 [6]: > 100 µM (inactive)
- GI50 [7]: > 100 µM (inactive)
- GI50 [8]: > 100 µM (inactive)
- GI50 [9]: > 100 µM (inactive)
- GI50 [10]: > 100 µM (inactive)
- GI50 [11]: > 100 µM (inactive)
- GI50 [12]: > 100 µM
- GI50 [13]: > 100 µM (inactive)
- GI50 [15]: > 100 µM (inactive)
- GI50 [16]: > 100 µM (inactive)
- GI50 [17]: > 100 µM (inactive)
- GI50 [18]: > 100 µM (inactive)
- GI50 [19]: > 100 µM (inactive)
- GI50 [20]: > 100 µM (inactive)
- GI50 [21]: > 100 µM (inactive)
- GI50 [22]: > 100 µM (inactive)
- GI50 [23]: > 100 µM (inactive)
- GI50 [24]: > 100 µM (inactive)
- GI50 [25]: > 100 µM (inactive)
- GI50 [26]: > 100 µM (inactive)
- GI50 [27]: > 100 µM (inactive)
- GI50 [30]: > 100 µM (inactive)
- GI50 [31]: > 100 µM (inactive)
- GI50 [32]: > 100 µM (inactive)
- GI50 [33]: > 100 µM (inactive)
- GI50 [34]: > 100 µM (inactive)
- GI50 [35]: > 100 µM (inactive)
- GI50 [36]: > 100 µM (inactive)
- GI50 [37]: > 100 µM (inactive)
- GI50 [38]: > 100 µM (inactive)
- GI50 [58]: > 100 µM (inactive)
- GI50 [39]: > 100 µM (inactive)
- GI50 [40]: > 100 µM (inactive)
- GI50 [41]: > 100 µM (inactive)
- GI50 [42]: > 100 µM (inactive)
- GI50 [43]: > 100 µM (inactive)
- GI50 [44]: > 100 µM (inactive)
- GI50 [45]: > 100 µM (inactive)
- GI50 [46]: > 100 µM (inactive)
- GI50 [47]: > 100 µM (inactive)
- GI50 [48]: > 100 µM (inactive)
- GI50 [49]: > 100 µM (inactive)
- GI50 [50]: > 100 µM (inactive)
- GI50 [51]: > 100 µM (inactive)
- GI50 [52]: > 100 µM (inactive)
- GI50 [53]: > 100 µM (inactive)
- GI50 [54]: > 100 µM (inactive)
- GI50 [55]: > 100 µM (inactive)
- GI50 [56]: > 100 µM (inactive)
- GI50 [57]: > 100 µM (inactive)

Compound: C[C@@H]1O[C@@H]2OCC[C@@H]2C2=C1C(=O)c1ccccc1C2=O
- GI50 [1]: 12.3 µM (inactive)
- GI50 [2]: 18 µM (inactive)
- GI50 [3]: 19 µM (inactive)
- GI50 [4]: 12.2 µM (inactive)
- GI50 [5]: 15.2 µM (inactive)
- GI50 [6]: 6.87 µM (inactive)
- GI50 [7]: 23.9 µM (inactive)
- GI50 [8]: 9.1 µM (inactive)
- GI50 [9]: 19.8 µM (inactive)
- GI50 [10]: 17.9 µM (inactive)
- GI50 [12]: 15.6 µM
- GI50 [13]: 3.51 µM (inactive)
- GI50 [14]: 17.3 µM (inactive)
- GI50 [15]: 4.38 µM (inactive)
- GI50 [16]: 40 µM (inactive)
- GI50 [17]: 28.1 µM (inactive)
- GI50 [18]: 1.98 µM (inactive)
- GI50 [19]: 10.1 µM (inactive)
- GI50 [20]: 15.2 µM (inactive)
- GI50 [21]: 1.92 µM (inactive)
- GI50 [22]: 3.98 µM (inactive)
- GI50 [23]: 1.25 µM (inactive)
- GI50 [24]: 33.7 µM (inactive)
- GI50 [25]: 1.94 µM (inactive)
- GI50 [26]: 1.85 µM (inactive)
- GI50 [27]: 7.74 µM (inactive)
- GI50 [28]: 2.19 µM (inactive)
- GI50 [29]: 26.7 µM (inactive)
- GI50 [30]: 4.88 µM (inactive)
- GI50 [31]: 16.7 µM (inactive)
- GI50 [32]: 6.65 µM (inactive)
- GI50 [33]: 2.02 µM (inactive)
- GI50 [34]: 3.08 µM (inactive)
- GI50 [35]: 4.14 µM (inactive)
- GI50 [36]: 1.81 µM (inactive)
- GI50 [37]: 6.85 µM (inactive)
- GI50 [38]: 3.65 µM (inactive)
- GI50 [58]: 7.23 µM (inactive)
- GI50 [39]: 3.46 µM (inactive)
- GI50 [40]: 4.97 µM (inactive)
- GI50 [41]: 15.8 µM (inactive)
- GI50 [42]: 8.85 µM (inactive)
- GI50 [43]: 13.9 µM (inactive)
- GI50 [44]: 11 µM (inactive)
- GI50 [45]: 5.94 µM (inactive)
- GI50 [46]: 28.4 µM (inactive)
- GI50 [47]: 6.35 µM (inactive)
- GI50 [48]: 18.7 µM (inactive)
- GI50 [49]: 9.95 µM (inactive)
- GI50 [50]: 4.24 µM (inactive)
- GI50 [51]: 4.04 µM (inactive)
- GI50 [52]: 5.12 µM (inactive)
- GI50 [53]: 19.7 µM (inactive)
- GI50 [54]: 7.53 µM (inactive)
- GI50 [55]: 11.5 µM (inactive)
- GI50 [56]: 4.35 µM (inactive)
- GI50 [57]: 10.8 µM (inactive)
